Results taken from patent publication US11214803B2, “Modulators of YAP1 expression” (Ionis Pharmaceuticals, Inc., priority 2019, dated 2022).

Assays:
Yap1 mRNA [1] = experiment: Yap1 mRNA in SCC25 cells, RNA analysis (Example 25); format: cell-based, human; conditions: free uptake, 48 hours, RTS4814, normalized to actin-beta
Experimental: (§1) Modified oligonucleotides described in the studies above were tested at various doses in squamous cell carcinoma cell SCC25. A control oligonucleotide 792169 (a 3-10-3 cET gapmer with a full phosphorothioate backbone, […], designated herein as SEQ ID No.: 2940; is not complementary to any known human gene) was also tested.
Cultured SCC25 cells at a density of 5,000 cells per well were treated using free uptake with modified oligonucleotides diluted to concentrations described in the tables below. After approximately 48 hours, Yap1 mRNA levels were measured as previously described using the Human Yap1 primer-probe set RTS4814. Yap1 mRNA levels were normalized to actin-beta content, as measured by primer probe set RTS5002 (forward sequence […], designated herein as SEQ ID NO.: 20; reverse sequence […], designated herein as SEQ ID NO.: 21; probe sequence […], designated herein as SEQ ID NO.: 22). Results are presented in the tables below as percent control of the amount of Yap1 mRNA relative to untreated control cells (% UTC).

SCC25 cells = experiment: Cell proliferation assay in SCC25 cells, CellTiter-Glo (Example 25); format: cell-based, human; conditions: free uptake, 144 hours
Experimental: as §1
Cultured SCC25 cells at a density of 1,000 cells/well were treated using free uptake with modified oligonucleotides diluted to concentrations described in the tables below. After approximately 144 hours, cell proliferation was measured using the luminescent cell viability CellTiter-Glo® 2.0 Assay (Promega). Results are presented in the tables below as percent control of the amount of luminescence in samples treated with modified oligonucleotides relative to untreated control cells (% UTC).

Yap1 mRNA [2] = experiment: Inhibition of human Yap1 mRNA in epidermoid carcinoma A-431 xenograft tumors (Example 27); format: in vivo; conditions: A-431 xenografts in NCr-Foxn1nu mice, 6-8 hours post final dose, relative to PBS
Experimental: An epidermoid carcinoma A-431 xenograft tumor model was used to evaluate activity of modified oligonucleotides targeted to human Yap1. Five million A-431 cells in 30% matrigel were implanted subcutaneously into the flanks of female NCr-Foxn1nu mice (from Taconic) at 4-6 weeks of age. When tumors reached an average volume of 40 mm^3, approximately two weeks post-implantation, groups of four mice each were administered at either 25 mg/kg or 50 mg/kg daily with modified oligonucleotides for […] (5 doses). Tumors were collected 6-8 hours post final dose and tested for Yap1 mRNA knockdown by RT-qPCR. Yap1 mRNA levels were measured as previously described using the Human Yap1 primer-probe set RTS4814. Yap1 mRNA levels were normalized to actin-beta content, as measured by primer probe set RTS5002. Results are presented in the tables below as percent control of the amount of Yap1 mRNA relative to PBS treated animals (% control).

Yap1 mRNA [3] = experiment: Inhibition of human Yap1 mRNA in squamous cell carcinoma CAL27 xenograft tumors (Example 28); format: in vivo; conditions: CAL27 xenografts in NCr-Foxn1nu mice, relative to PBS treated
Experimental: A squamous cell carcinoma CAL27 xenograft tumor model was used to evaluate activity of modified oligonucleotides targeted to human Yap1. Five million CAL27 cells in 30% matrigel were implanted subcutaneously into the flanks of female CrTac:NCr-Foxn1nu mice (from Taconic) at 4-6 weeks of age. Groups of four mice each were administered with either 15 mg/kg or 30 mg/kg of modified oligonucleotides daily for five days after tumor size had reached ˜100 mm^3 (about 3 weeks post implantation). Tumors were collected and tested for Yap1 mRNA knockdown by RT-qPCR. Yap1 mRNA levels were measured as previously described using the Human Yap1 primer-probe set RTS4814. Yap1 mRNA levels were normalized to actin-beta content, as measured by primer probe set RTS5002. Results are presented in the tables below as percent control of the amount of Yap1 mRNA relative to PBS treated […].

[4] = Cynomolgus monkey tolerability, body and organ weight measurements (Example 34); format: in vivo; conditions: cynomolgus monkeys, 35 mg/kg subcutaneously; for Heart weight / Kidney weight / Liver with gallbladder weight / Spleen weight: necropsy; for Terminal Body Weight: prior to necropsy
Experimental: Cynomolgus monkeys were treated with Ionis modified oligonucleotides selected from studies described in the Examples above. Modified oligonucleotide tolerability was evaluated.
During the study period, the monkeys were observed twice daily for signs of illness or distress. Any animal experiencing more than momentary or slight pain or distress due to the treatment, injury or illness was treated by the veterinary staff with approved analgesics or agents to relieve the pain after consultation with the Study Director. Any animal in poor health or in a possible moribund condition was identified for further monitoring and possible euthanasia. Scheduled euthanasia of the animals was conducted on day 86 approximately 48 hours after the last dose by exsanguination while under deep anesthesia. The protocols described in the Example were approved by the Institutional Animal Care and Use Committee (IACUC).
To evaluate the effect of Ionis oligonucleotides on the overall health of the animals, body and organ weights were measured. Terminal body weight was measured prior to necropsy.

[5] = Cynomolgus monkey tolerability, pro-inflammatory proteins analysis, Complement C3 and CRP (Example 34); format: in vivo; conditions: cynomolgus monkeys, 35 mg/kg subcutaneously; for CRP: day 44
Experimental: To evaluate any inflammatory effect of Ionis oligonucleotides in cynomolgus monkeys, blood samples were taken for analysis. The monkeys were fasted overnight prior to blood collection. On day 42 (pre-dose and 24 hours post-dose), approximately 0.8 mL of blood was collected from each animal and put into tubes without anticoagulant for serum separation. […] Complement C3 were measured using a Toshiba 120 FR NEO chemistry analyzer (Toshiba Co., Japan). […] Another marker of inflammation, C-Reactive Protein (CRP) was tested together with the clinical chemistry parameters tested for liver function above.

[6] = rat, in vivo, sc, 50 mg/kg
Experimental: Male Sprague-Dawley rats were maintained on a 12-hour light/dark cycle and fed ad libitum with Purina normal rat chow. Groups of 4 Sprague-Dawley rats each were weekly injected subcutaneously with 50 mg/kg of Ionis oligonucleotide for 6 weeks (total 7 doses). Forty-eight hours after the last dose, the rats were euthanized; and organs, urine and plasma were harvested for further analysis.
To evaluate the effect of Ionis oligonucleotides on kidney function, urinary levels of total protein and creatinine were measured using an automated clinical chemistry analyzer (Hitachi Olympus AU400c, Melville, N.Y.).

[7] = Cynomolgus monkey tolerability, urine analysis (Example 34); conditions: cynomolgus monkeys, 35 mg/kg subcutaneously, day 44
Experimental: Prior to the study, the monkeys were kept in quarantine during which the animals were observed daily for general health. The monkeys were 2-4 years old and weighed 2-4 kg. Eleven groups of 4 randomly assigned male cynomolgus monkeys each were injected subcutaneously with Ionis oligonucleotide or saline in a clock-wise rotation between four different sites on the back. Following loading doses on days 1, 3, 5 and 7, the monkeys were dosed once per week (on days 14, 21, 28, 35, and 42) with 35 mg/kg of Ionis oligonucleotide.
Food was removed overnight the day before fresh urine collection, but water was supplied. Fresh urine samples for urinalysis and urine chemistry were collected from all animals using a clean cage pan on wet ice (first in the morning) on day 44. Urinalysis/Urine Chemistry parameters creatinine (UCRE), microprotein (UTP), urine microalbumin (UALB), and protein/creatinine (P/C) ratio were measured using a Toshiba 120FR automated chemistry analyzer (Toshiba Co., Japan).

Substance	Yap1 mRNA, % UTC (Yap1 mRNA [1]; 0.04 μM)	Yap1 mRNA, % UTC (Yap1 mRNA [1]; 0.2 μM)	Yap1 mRNA, % UTC (Yap1 mRNA [1]; 1 μM)	Yap1 mRNA, % UTC (Yap1 mRNA [1]; 5 μM)	cell proliferation (luminescence) % UTC (SCC25 cells; 0.04 μM)	cell proliferation (luminescence) % UTC (SCC25 cells; 0.2 μM)	cell proliferation (luminescence) % UTC (SCC25 cells; 1 μM)	cell proliferation (luminescence) % UTC (SCC25 cells; 5 μM)	Yap1 mRNA in tumors, % control (Yap1 mRNA [2]; 25 mpk daily (5 doses))	Yap1 mRNA in tumors, % control (Yap1 mRNA [2]; 50 mpk daily (5 doses))	Yap1 mRNA in tumors, % UTC (Yap1 mRNA [3]; 15 mg/kg daily for five days)	Yap1 mRNA in tumors, % UTC (Yap1 mRNA [3]; 30 mg/kg daily for five days)	Heart weight [4]	Kidney weight [4]	Liver with gallbladder weight [4]	Spleen weight [4]	Terminal Body Weight [4]	Complement C3 ([5]; Day 42 (pre-dose))	Complement C3 ([5]; day 42 (24 hr post-dose))	CRP [5]	other results
1198872 (TGTATGTCAGAAGAGT; chemically modified gapmer, further chemistry not given here) [compound 1198872]	54 % UTC	22 % UTC	9 % UTC	7 % UTC	82 % UTC	37 % UTC	22 % UTC	18 % UTC	34 % control	26 % control	55 % UTC	38 % UTC	12 g	15 g	63 g	4 g	3126 g	103 mg/dL	96 mg/dL	1.1 mg/L	URINE P/C ratio (total protein to creatinine ratio) [6]: 8; UALB [7]: 0.3 mg/dL; UCRE [7]: 111 mg/dL; UTP [7]: 14 mg/dL
1198605 (GTAATATTGCAATCTG; modified gapmer, further chemistry not given here) [compound 1198605]	48 % UTC	23 % UTC	10 % UTC	5 % UTC	77 % UTC	39 % UTC	23 % UTC	13 % UTC	32 % control	30 % control	65 % UTC	48 % UTC	11 g	15 g	67 g	4 g	2968 g	105 mg/dL	95 mg/dL	4.2 mg/L	URINE P/C ratio (total protein to creatinine ratio) [6]: 28; UALB [7]: 0.4 mg/dL; UCRE [7]: 69 mg/dL; UTP [7]: 12 mg/dL
1198728 (TATTAGAGTATGTGGC; modified gapmer, further chemistry not given here) [compound 1198728]	71 % UTC	31 % UTC	15 % UTC	7 % UTC	88 % UTC	61 % UTC	30 % UTC	20 % UTC	47 % control	39 % control	77 % UTC	56 % UTC	10 g	15 g	65 g	5 g	2722 g	93 mg/dL	90 mg/dL	4.0 mg/L	URINE P/C ratio (total protein to creatinine ratio) [6]: 7; UALB [7]: 0.3 mg/dL; UCRE [7]: 70 mg/dL; UTP [7]: 16 mg/dL
